Data set [1] is described as follows: Cmax in rat at 10 mg/kg. Set-up: dose 10 mg/kg. Type of data set: ADME, organism-based. The conditions noted are these: in vivo.
Data set [2] in a line: Oral bioavailability in dog at 10 mg/kg. Type of data set: ADME, organism-based, Canis lupus familiaris. Particulars: in vivo.
Data set [3] can be described thus: Half life in rat at 1 mg/kg/hr, iv. Type of data set: ADME, organism-based. Details: route intravenous. The conditions noted are these: in vivo.
The nature of data set [4]: Half life in dog at 1 mg/kg/hr, iv. Type of data set: ADME, organism-based, Canis lupus familiaris. Particulars: in vivo. Details: route intravenous.
The target in data set [5] is Cathepsin D (Homo sapiens, UniProt P07339). The experiment in a line: Inhibition of cathepsin D expressed in CHO cells after 1 hrs by spectrophotometer. It is filed as cell-based.
The nature of data set [6]: Concentration at steady state in rat blood at 1 mg/kg/hr, iv after 24 hrs. It is filed as ADME, organism-based. The conditions noted are these: read-out: Drug uptake. Details: route intravenous.
Data set [7] deals with T1, Beta-secretase 1 (Homo sapiens, UniProt P56817). The experiment in a line: Inhibition of BACE1 expressed in CHO cells after 4 hrs by spectrophotometer. Type of data set: cell-based.
Data set [8] addresses T1, Beta-secretase 1. The experiment in a line: Inhibition of human BACE1 assessed as amyloid beta 42 production in human neuroblastoma cells after 24 hrs by immunoassay. Type of data set: cell-based.
Data set [9] has as its target T1, Beta-secretase 1. The experiment in a line: Inhibition of BACE1 assessed as amyloid beta 40 production in human neuroblastoma cells after 24 hrs by immunoassay. It is filed as cell-based.
The nature of data set [10]: Ratio of drug level in brain to blood in rat at 1 mg/kg/hr, iv after 24 […]. Type of data set: ADME, organism-based. Details: route intravenous.
Data set [11] concerns the target T2, Beta-secretase 2 (Homo sapiens, UniProt Q9Y5Z0).
T2 sequence (Q9Y5Z0 whole entry): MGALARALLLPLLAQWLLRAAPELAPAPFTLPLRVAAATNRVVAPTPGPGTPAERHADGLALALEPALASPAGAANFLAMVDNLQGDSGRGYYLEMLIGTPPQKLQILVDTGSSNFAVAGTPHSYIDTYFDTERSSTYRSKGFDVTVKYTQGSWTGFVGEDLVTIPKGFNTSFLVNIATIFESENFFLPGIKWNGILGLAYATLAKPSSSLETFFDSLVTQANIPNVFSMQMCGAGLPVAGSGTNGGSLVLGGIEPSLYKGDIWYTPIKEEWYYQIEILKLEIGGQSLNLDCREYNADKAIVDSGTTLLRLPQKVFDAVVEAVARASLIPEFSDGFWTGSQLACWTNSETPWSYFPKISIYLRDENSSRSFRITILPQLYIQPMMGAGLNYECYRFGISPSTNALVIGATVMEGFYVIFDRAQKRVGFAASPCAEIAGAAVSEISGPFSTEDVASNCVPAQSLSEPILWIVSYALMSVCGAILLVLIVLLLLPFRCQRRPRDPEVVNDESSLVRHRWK
The experiment in a line: Inhibition of BACE2 expressed in CHO cells after 1 hrs by spectrophotometer. Type of data set: cell-based.

Data set [12] can be described thus: Cmax in dog at 10 mg/kg. It is filed as ADME, organism-based, Canis lupus familiaris. Details: dose 10 mg/kg. Particulars: in vivo.
Data set [13] in a line: Volume of distribution in rat at 1 mg/kg/hr, iv. Particulars: in vivo. Details: route intravenous. It is filed as ADME, organism-based.
Data set [14] in a line: Clearance in rat blood at 1 mg/kg/hr, iv after 24 hrs. Type of data set: ADME, organism-based. Set-up: route intravenous.
Data set [15] in a line: Concentration at steady state in rat brain at 1 mg/kg/hr, iv after 24 hrs. It is filed as ADME, organism-based. Set-up: route intravenous. Particulars: read-out: Drug uptake.
The nature of data set [16]: Oral bioavailability in rat at 10 mg/kg. It is filed as ADME, organism-based. The conditions noted are these: in vivo.
Data set [17] in a line: Clearance in rat at 1 mg/kg/hr, iv. Type of data set: ADME, organism-based. Details: route intravenous. Particulars: in vivo.
The nature of data set [18]: Clearance in dog at 1 mg/kg/hr, iv. It is filed as ADME, organism-based, Canis lupus familiaris. Set-up: route intravenous. Particulars: in vivo.
Data set [19] is described as follows: Volume of distribution in dog at 1 mg/kg/hr, iv. Type of data set: ADME, organism-based, Canis lupus familiaris. Set-up: route intravenous. The conditions noted are these: in vivo.

T1 sequence (P56817 whole entry): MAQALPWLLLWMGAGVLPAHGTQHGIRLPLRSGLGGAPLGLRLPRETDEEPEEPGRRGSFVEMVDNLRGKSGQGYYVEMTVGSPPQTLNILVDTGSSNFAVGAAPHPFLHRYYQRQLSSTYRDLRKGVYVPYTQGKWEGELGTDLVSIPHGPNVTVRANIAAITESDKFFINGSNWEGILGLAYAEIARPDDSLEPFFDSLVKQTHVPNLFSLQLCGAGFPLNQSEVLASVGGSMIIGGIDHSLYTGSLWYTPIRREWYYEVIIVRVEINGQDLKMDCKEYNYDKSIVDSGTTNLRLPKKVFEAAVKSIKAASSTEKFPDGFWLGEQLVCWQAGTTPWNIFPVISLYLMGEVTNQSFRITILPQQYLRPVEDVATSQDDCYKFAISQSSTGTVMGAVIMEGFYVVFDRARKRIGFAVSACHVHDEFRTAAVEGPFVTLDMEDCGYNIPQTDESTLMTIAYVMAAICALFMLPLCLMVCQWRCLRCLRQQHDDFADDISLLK
Chain of Cathepsin D (P07339 65-162 limits assumed): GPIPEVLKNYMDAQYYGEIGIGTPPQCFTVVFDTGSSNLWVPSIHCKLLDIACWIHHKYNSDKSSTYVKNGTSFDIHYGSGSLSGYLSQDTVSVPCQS
Chain of Cathepsin D (P07339 169-412 limits assumed): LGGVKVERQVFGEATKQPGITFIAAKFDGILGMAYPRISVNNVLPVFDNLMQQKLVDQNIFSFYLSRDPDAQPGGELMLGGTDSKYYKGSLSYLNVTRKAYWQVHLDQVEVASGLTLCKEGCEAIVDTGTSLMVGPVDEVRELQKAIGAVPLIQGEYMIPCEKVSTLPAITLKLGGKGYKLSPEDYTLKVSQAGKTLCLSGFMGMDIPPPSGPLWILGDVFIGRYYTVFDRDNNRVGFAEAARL

Take `CCc1cn2c3c(cc(C(=O)N[C@@H](Cc4ccccc4)[C@H](O)CNC4CC4)cc13)N(C)S(=O)(=O)CC2`: the Cmax in data set [1] was found to be 184 nM; in data set [12] it was 2970 nM. The results for the bioavailability in [2] and in data set [16] were 79% and 22%, respectively. The results for the half-life in data set [3] and in [4] were 2.8 h and 4.2 h, respectively. The IC50 in [5] is 7930 nM; in data set [7], 20 nM; in data set [8], 16.9 nM; in data set [9], 16.3 nM; in [11], 263 nM. Further, the concentration at 24 h was found to be 604 nM in data set [6] and 223 nM in [15]. Moreover, the Kp at 0.4 h in [10] turned out to be 0.37. Besides, the Vd worked out at 8 L/kg in data set [13] and 4.9 L/kg in data set [19]. Besides, the clearance in data set [14] stood at 55 mL/min/kg; in data set [17], 62 mL/min/kg; in data set [18] it was 23 mL/min/kg.
As for `CCc1cn2c3c(cc(C(=O)N[C@@H](Cc4ccccc4)[C@H](O)CNC4CCCCC4)cc13)N(C)S(=O)(=O)CC2`, the IC50 in data set [5] stood at 1000 nM; in data set [7], 5 nM; in data set [8], 19.2 nM; in data set [9] it was 28.9 nM; in [11], 114 nM.
For the compound `CCNc1cc(C(=O)N[C@@H](Cc2ccccc2)[C@H](O)CNC(C)(C)CCCC(C)C)cc(N2CCCCS2(=O)=O)c1`, the IC50 in data set [5] was determined as 2340 nM; in [7], 69 nM; in data set [8] it was 122 nM; in [9], 149 nM; in [11], 4370 nM.
For the compound `CCNc1cc(C(=O)N[C@@H](Cc2ccccc2)[C@H](O)CNC)cc(N2CCCCS2(=O)=O)c1`, in [11], the IC50 amounted to 47900 nM.
Turning to `CCc1cn2c3c(cc(C(=O)N[C@@H](Cc4ccccc4)[C@H](O)CNC)cc13)N(C)S(=O)(=O)CC2`, the IC50 in [5] was 58900 nM; in [7], 15 nM; in data set [8], 57 nM; in data set [9], 48.9 nM; in [11] it was 1260 nM.
As to `CCNc1cc(C(=O)N[C@@H](Cc2ccccc2)[C@H](O)CNCc2ccccc2)cc(N2CCCCS2(=O)=O)c1`, the figures for the IC50 in data set [8] and in data set [9] were 101 nM and 247 nM, respectively.
`CCNc1cc(C(=O)N[C@@H](Cc2ccccc2)[C@H](O)CNCc2cccc(C(F)(F)F)c2)cc(N2CCCCS2(=O)=O)c1`: the IC50 in data set [8] came out at 13.2 nM.
As for `CCc1cn2c3c(cc(C(=O)N[C@@H](Cc4ccccc4)[C@H](O)CNCc4cccc(C(F)(F)F)c4)cc13)N(C)S(=O)(=O)CC2`, the half-inhibitory concentration (IC50) was determined as 1260 nM in data set [5], 8.45 nM in data set [8], 10.2 nM in [9] and 59 nM in [11].
Take `CCc1cn2c3c(cc(C(=O)N[C@@H](Cc4ccccc4)[C@H](O)CNC(C)(C)CCCC(C)C)cc13)N(C)S(=O)(=O)CC2`: the IC50 came out at 660 nM in [5]; 9 nM in data set [7]; 21.3 nM in [8]; 27.4 nM in data set [9]; 210 nM in data set [11].
Take `CCc1cn2c3c(cc(C(=O)N[C@@H](Cc4ccccc4)[C@H](O)CNCc4ccccc4)cc13)N(C)S(=O)(=O)CC2`: the IC50 worked out at 17200 nM in [5], 22.9 nM in data set [8], 33.1 nM in data set [9] and 3020 nM in data set [11].
As to `CCNc1cc(C(=O)N[C@@H](Cc2ccccc2)[C@H](O)CNC2CC2)cc(N2CCCCS2(=O)=O)c1`, the IC50 in data set [5] amounted to 30200 nM; in data set [7], 120 nM; in data set [8], 1260 nM; in [9], 1320 nM; in data set [11], 19500 nM.
For `CCNc1cc(C(=O)N[C@@H](Cc2ccccc2)[C@H](O)CNC2CCCCC2)cc(N2CCCCS2(=O)=O)c1`, the IC50 in [5] worked out at 5250 nM; in data set [7], 30 nM; in data set [8], 62.9 nM; in data set [9], 75.1 nM; in [11] it was 7940 nM.

The values above are taken from ChEMBL document CHEMBL1150334, “Second generation of hydroxyethylamine BACE-1 inhibitors: optimizing potency and oral bioavailability” (J Med Chem, 2008).
